Source: PubChem BioAssay (NCI)
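Protocol summary: plate cells (96-well), add compound at 5 concentrations, incubate 48 h, interpolate endpoints linearly. TGI: total growth inhibition.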

Key:
Assay in all cases: inhibition of tumour cell growth, NCI panel, 48 h
[1] = test system: TK-10 renal
[2] = test system: SW-620 colon
[3] = test system: RPMI-8226 leukemia
[4] = test system: HT29 colon
[5] = test system: OVCAR-5 ovarian
[6] = test system: ACHN renal
[7] = test system: M14 melanoma
[8] = test system: SK-MEL-28 melanoma
[9] = test system: HOP-62 NSCLC
[10] = test system: SN12C renal
[11] = test system: NCI-H522 lung
[12] = test system: T-47D breast
[13] = test system: EKVX NSCLC
[14] = test system: MDA-N
[15] = test system: OVCAR-3 ovarian
[16] = test system: UACC-62 melanoma
[17] = test system: MALME-3M melanoma
[18] = test system: SF-295 CNS
[19] = test system: BT-549 breast

Row | Structure (SMILES) | TGI [1] [µM] | TGI [2] [µM] | TGI [3] [µM] | TGI [4] [µM] | TGI [5] [µM] | TGI [6] [µM] | TGI [7] [µM] | TGI [8] [µM] | TGI [9] [µM] | TGI [10] [µM] | TGI [11] [µM] | TGI [12] [µM] | TGI [13] [µM] | TGI [14] [µM] | TGI [15] [µM] | TGI [16] [µM] | TGI [17] [µM] | TGI [18] [µM] | TGI [19] [µM]
1 | Brc1ccc(N=C/C=C(\Nc2ccc(Br)cc2)C23CC4CC(CC(C4)C2)C3)cc1 | 28.6 | 92.1 | > 100 | > 61.6 | > 67.8 | 23.2 | 71 | > 59.5 | 43.6 | > 64.2 | 30.5 | 43.9 | 56.2 | 34.9 | 28.9 | 15 | 42.8 | > 92 | 49.7
2 | CCN(CC)CCOc1ccc(N2Cc3cc(OC)c(OC)cc3C2=O)cc1 | > 100 | > 100 | > 100 | > 100 | > 100 | > 100 | > 100 | > 100 | > 100 | > 100 | > 100 | > 100 | > 100 | > 100 | > 100 | > 100 | > 100 | > 100 | > 100
3 | O=C(O)CSc1nc2ccccc2[nH]1 | > 100 | > 100 | – | > 100 | > 100 | > 100 | > 100 | > 100 | > 100 | > 100 | > 100 | > 100 | > 100 | > 100 | > 100 | > 100 | > 100 | > 100 | > 100
4 | COc1cc(/C=C2\N=C(c3ccccc3)N(c3ccc4c(c3)Sc3cc(N5C(=O)/C(=C/c6cc(OC)c(OC)c(OC)c6)N=C5c5ccccc5)ccc3N4)C2=O)cc(OC)c1OC | 30.9 | > 100 | 88.9 | > 100 | 39.6 | 36.4 | 80.8 | > 100 | 60.2 | 51 | 42.5 | 70.2 | 54.6 | 37.9 | 40.7 | 31.4 | 41.1 | 47.9 | 55.6
5 | Cc1ccc2[nH]c3c(C)c4cc[n+](C)cc4c(C)c3c2c1 | > 96.3 | 12.2 | > 59.7 | 41.6 | 77.1 | 57.9 | 28.9 | 8.48 | 3.28 | 1.52 | 3.9 | 6.83 | 10.3 | 22.1 | 19.2 | 16.4 | 4.38 | 4.19 | 3.05
6 | O=C(Nn1c(-c2ccccc2)nc2ccccc2c1=O)c1ccc([N+](=O)[O-])cc1 | > 100 | > 100 | > 100 | > 100 | > 100 | > 100 | > 100 | > 100 | > 100 | > 100 | > 100 | > 100 | > 100 | > 100 | > 100 | > 100 | > 100 | > 100 | > 100
